Source: patent US20230099031A1, “BIFUNCTIONAL AGENTS FOR PROTEIN RECRUITMENT AND/OR DEGRADATION” (Orionis Biosciences, Inc., priority 2019, published 2023)
Where a name gives a salt, the structure may show the parent alone.

Molecular target: T1, CRBN (Homo sapiens, UniProt Q96SW2)
T1 construct: expressed in transfected cells; host or cells: HEK293T
Experiment: Competition Assay: MAPPIT-like, competition with trimethoprim-lenalidomide hybrid ligand for binding to CRBN in HEK293T cells
Format: cell-based
Settings: protocol and reagents of Example 1; read-out: IC50 Competition
From the text: A bait protein (protein A) is expressed as a fusion protein in which it is genetically fused to an engineered intracellular receptor domain of the leptin receptor, which is itself fused to the extracellular domain of the erythropoietin (Epo) receptor. Binding of Epo ligand to the EpoR component results in activation of receptor-associated intracellular JAK2. However, activated JAK2 cannot activate the leptin receptor to trigger STAT3 binding and its phosphorylation because its tyrosine residues, normally phosphorylated by activated JAK2, have been mutated. Reconstitution of a JAK2 phosphorylatable STAT3 docking site is instead created through interaction of a protein B with protein A, whereby protein B is fused to a cytoplasmic domain of the gp130 receptor (which now harbors appropriate tyrosine resides recognized by the activated JAK2 kinase). Thus, physical interaction of protein A with protein B reconstitutes and Epo triggers JAK2-STAT3 signaling pathway activation. Activation of STAT3 can be monitored by introduction of a STAT3-responsive reporter gene, including a luciferase-encoding gene or a gene encoding a fluorescent marker such as GFP or some other type of fluorescent protein (EGF etc.). In this manner, the MAPPIT assay provides a versatile assay to assess such recombinant protein-protein interactions, or compound- or hybrid ligand-induced protein-protein interactions, in intact cells.
Formation of the complex results in activation of a STAT-responsive luciferase reporter gene. That signal is set to 100% luciferase activity. In a separate sample set up, cells are prepared in the same manner but, in addition, co-incubated with a test compound whose interaction with CRBN is investigated. […] Increasing concentrations of test compound are assessed to determine CRBN binding efficiency as determined in this type of ligand competition experiment in living cells. Specificity of signal inhibition is assessed by a parallel experimental set up in which test compound effect is assessed for inhibition of signal generated by a control gp130 fusion protein (CTRL) that directly binds to the DHFR-fusion protein in the absence of hybrid ligand (i.e. a direct interaction of the proteins).
In more detail, HEK293T cells are cultured in Dulbecco's modified Eagle's medium supplemented with 10% fetal calf serum, incubated at 37° C., 8% CO2. […] Data points represent the average luciferase activity of triplicate samples derived from cells treated with leptin+test compound for the REM2 control (CTRL) or cells treated with leptin+hybrid ligand+test compound (CRBN) relative to leptin (CTRL) or leptin+hybrid ligand (CRBN) only treated samples (the signals obtained in absence of added test compound for both cases is set at 100% of luciferase activity on y-axis). Error bars represent standard deviations. Curves are fit using 4-parameter nonlinear regression in […] PRISM software

SMILES | IC50 [µM]
CC1CN(C(=O)CNc2ccc3c(c2)C(=O)N(C2CCC(=O)NC2=O)C3)CCO1 (stereo not shown) [Compound C12586, 3-[6-[[2-(2-methylmorpholin-4-yl)-2-oxo-ethyl]amino]-1-oxo-isoindolin-2-yl]piperidine-2,6-dione] | 0.383
O=C1CCC(N2Cc3ccc(NCC(=O)N4CC5CC4CO5)cc3C2=O)C(=O)N1 (stereo not shown) [Compound C12589] | 10.3
CC1CN(C)CCN1C(=O)CNc1ccc2c(c1)C(=O)N(C1CCC(=O)NC1=O)C2 (stereo not shown) [Compound C12595, 3-[6-[[2-(2,4-dimethylpiperazin-1-yl)-2-oxo-ethyl]amino]-1-oxo-isoindolin-2-yl]piperidine-2,6-dione] | 0.208
CN1CCN(C(=O)CNc2ccc3c(c2)C(=O)N(C2CCC(=O)NC2=O)C3)CC1=O (stereo not shown) [Compound C12597, 3-[6-[[2-(4-methyl-3-oxo-piperazin-1-yl)-2-oxo-ethyl]amino]-1-oxo-isoindolin-2-yl]piperidine-2,6-dione] | 5.5
CC1CN(C(=O)CNc2ccc3c(c2)C(=O)N(C2CCC(=O)NC2=O)C3)CC(=O)N1 (stereo not shown) [Compound C12598, 3-[6-[[2-(3-methyl-5-oxo-piperazin-1-yl)-2-oxo-ethyl]amino]-1-oxo-isoindolin-2-yl]piperidine-2,6-dione] | 4.88
CC1CC(NC(=O)CNc2ccc3c(c2)C(=O)N(C2CCC(=O)NC2=O)C3)CCO1 (stereo not shown) [Compound C12695, 2-[[2-(2,6-dioxo-3-piperidyl)-3-oxo-isoindolin-5-yl]amino]-N-(2-methyltetrahydropyran-4-yl)acetamide] | 58
O=C1Cc2ccccc2C(=O)N1 [Compound C15352, 4H-isoquinoline-1,3-dione] | 10.3
O=C1c2ccccc2CC1n1ccc(=O)[nH]c1=O (stereo not shown) [Compound C16899, 1-(1-oxoindan-2-yl)pyrimidine-2,4-dione] | 10.4
O=C1CCC(CN2C(=O)c3ccccc3C2=O)C(=O)N1 (stereo not shown) [Compound C23258, 2-[(2,6-dioxo-3-piperidyl)methyl]isoindoline-1,3-dione] | 14500
O=C1CCC(N2C(=O)C3CCCCC3C2=O)C(=O)N1 (stereo not shown) [Compound C24191, 2-(2,6-dioxo-3-piperidyl)-3a,4,5,6,7,7a-hexahydroisoindole-1,3-dione] | 17.7
Cc1cccc2c1C(=O)N(C1CCC(=O)NC1=O)C2 (stereo not shown) [Compound C28661, 3-(7-methyl-1-oxo-isoindolin-2-yl)piperidine-2,6-dione] | 0.654
COc1cccc2c1C(=O)N(C1CCC(=O)NC1=O)C2 (stereo not shown) [Compound C29137, 3-(7-methoxy-1-oxo-isoindolin-2-yl)piperidine-2,6-dione] | 0.304
CC(=O)Nc1ccc2c(c1)C(=O)N(C1CCC(=O)NC1=O)C2 (stereo not shown) [Compound C29408, N-[2-(2,6-dioxo-3-piperidyl)-3-oxo-isoindolin-5-yl]acetamide] | 4.92
CC(=O)Nc1cccc2c1C(=O)N(C1CCC(=O)NC1=O)C2 (stereo not shown) [Compound C29457, N-[2-(2,6-dioxo-3-piperidyl)-3-oxo-isoindolin-4-yl]acetamide] | 10.4
NC(=O)Nc1cccc2c1CN(C1CCC(=O)NC1=O)C2=O (stereo not shown) [Compound C29490, [2-(2,6-dioxo-3-piperidyl)-1-oxo-isoindolin-4-yl]urea] | 8.86
O=C1c2c(F)c(F)c(F)c(F)c2C(=O)N1c1ccc(F)cc1F [Compound C34491, 2-(2,4-difluorophenyl)-4,5,6,7-tetrafluoro-isoindoline-1,3-dione] | 16.1
Nc1cccc2c(=O)n(C3CCC(=O)NC3=O)nnc12 (stereo not shown) [Compound C35833, 3-(8-amino-4-oxo-1,2,3-benzotriazin-3-yl)piperidine-2,6-dione] | 0.684
O=C1CCc2cc(C(=O)N3CCc4cccnc43)cnc2N1 [Compound C36128, 6-(2,3-dihydropyrrolo[2,3-b]pyridine-1-carbonyl)-3,4-dihydro-1H-1,8-naphthyridin-2-obe] | 20.3
NC(=O)c1ccc2c(c1)C(=O)N(C1CCC(=O)NC1=O)C2 (stereo not shown) [Compound C39772, 2-(2,6-dioxo-3-piperidyl)-3-oxo-isoindoline-5-carboxamide] | 13.8
O=C1CCC(Nc2cnc3ccccc3n2)C(=O)N1 (stereo not shown) [Compound C44292, 3-(quinoxalin-2-ylamino)piperidine-2,6-dione] | 8.32
O=C1CCC(N2Cc3ccc(C(F)(F)F)cc3C2=O)C(=O)N1 (stereo not shown) [Compound C45748, 3-[1-oxo-6-(trifluoromethyl)isoindolin-2-yl]piperidine-2,6-dione] | 0.953
NC1Cc2ccccc2C1=O (stereo not shown) [Compound C75987, 2-aminoindan-1-one; hydrochloride] | 11.2

Other lines, results leading:

IC50 [µM] | SMILES
1.09 | Nc1cccc2c1CCN(C1CCC(=O)NC1=O)C2=O (stereo not shown) [Compound C47933, 3-(5-amino-1-oxo-3,4-dihydroisoquinolin-2-yl)piperidine-2,6-dione]
9.1 | O=C(O)CNc1ccc2c(c1)C(=O)N(C1CCC(=O)NC1=O)C2 (stereo not shown) [Compound C47997, 2-[[2-(2,6-dioxo-3-piperidyl)-3-oxo-isoindolin-5-yl]amino]acetic acid]
2.18 | N#Cc1cccc2c1C(=O)N(C1CCC(=O)NC1=O)C2 (stereo not shown) [Compound C48009, 2-(2,6-dioxo-3-piperidyl)-3-oxo-isoindoline-4-carbonitrile]
0.546 | O=C1CCC(N2Cc3cccc(-c4ccccc4)c3C2=O)C(=O)N1 (stereo not shown) [Compound C48020, 3-(1-oxo-7-phenyl-isoindolin-2-yl)piperidine-2,6-dione]
45.4 | O=C1N=CC(N2C(=O)c3ccccc3C2=O)C(=O)N1 (stereo not shown) [Compound C49278, 2-(2,6-dioxo-5H-pyrimidin-5-yl)isoindoline-1,3-dione]
0.752 | CN(C)CC(=O)Nc1ccc2c(c1)C(=O)N(C1CCC(=O)NC1=O)C2 (stereo not shown) [Compound C49708, 2-(dimethylamino)-N-[2-(2,6-dioxo-3-piperidyl)-3-oxo-isoindolin-5-yl]acetamide]
6.74 | O=C1CCC(N2C(=O)c3ccccc3C2C2=c3ccccc3=NC2)C(=O)N1 (stereo not shown) [Compound C49713, 3-[1-(2H-indol-3-yl)-3-oxo-isoindolin-2-yl]piperidine-2,6-dione]
8.68 | O=C1CCC(Nc2ncccn2)C(=O)N1 (stereo not shown) [Compound C55468, 3-(pyrimidin-2-ylamino)piperidine-2,6-dione]
8.61 | COC1c2ccccc2C(=O)N1C1CCC(=O)NC1=O (stereo not shown) [Compound C56572, 3-(1-methoxy-3-oxo-isoindolin-2-yl)piperidine-2,6-dione]
42.9 | O=C1CCC(N2C(=O)C=C(c3ccccc3)C2=O)C(=O)N1 (stereo not shown) [Compound C64319, 3-(2,5-dioxo-3-phenyl-pyrrol-1-yl)piperidine-2,6-dione]
15.1 | O=C1CCC(N2C(=O)CC3(Cc4ccccc4C3)C2=O)C(=O)N1 (stereo not shown) [Compound C64329, 1′-(2,6-dioxo-3-piperidyl)spiro[indane-2,3′-pyrrolidine]-2′,5′-dione]
12.9 | O=C1CCC(N2C(=O)CC3(CCOCC3)C2=O)C(=O)N1 (stereo not shown) [Compound C64348, 2-(2,6-dioxo-3-piperidyl)-8-oxa-2-azaspiro[4.5]decane-1,3-dione]
3.95 | Cc1nc(N(C)C)cc2c1C(=O)N(C1CCC(=O)NC1=O)C2=O (stereo not shown) [Compound C64376, 6-(dimethylamino)-2-(2,6-dioxo-3-piperidyl)-4-methyl-pyrrolo[3,4-c]pyridine-1,3-dione]
0.633 | NCc1ccc2c(c1)C(=O)N(C1CCC(=O)NC1=O)C2 (stereo not shown) [Compound C66979, 3-[6-(aminomethyl)-1-oxo-isoindolin-2-yl]piperidine-2,6-dione]
6.5 | O=C1CC/C(=C/c2ccccc2)C(=O)N1 [Compound C68121, (3Z)-3-benzylidenepiperidine-2,6-dione]
4.95 | Cc1cccc2c1C(=O)N(C1CCC(=O)NC1=O)S2(=O)=O (stereo not shown) [Compound C73349, 3-(4-methyl-1,1,3-trioxo-1,2-benzothiazol-2-yl)piperidine-2,6-dione]
0.00189 | COc1ccc(Br)c2c1C(=O)N(C1CCC(=O)NC1=O)C2 (stereo not shown) [Compound C74668, 3-(4-bromo-7-methoxy-1-oxo-isoindolin-2-yl)piperidine-2,6-dione]
14.7 | Cc1cccc2c1S(=O)(=O)N(C1CCC(=O)NC1=O)C2=O (stereo not shown) [Compound C75688, 3-(7-methyl-1,1,3-trioxo-1,2-benzothiazol-2-yl)piperidine-2,6-dione]
